Measurements as given in ChEMBL document CHEMBL1201862, “PubChem BioAssay data set” (2004).
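Grown in 96-well plates, cells were treated for 48 hours with each compound at five concentrations. Insufficient inhibition: endpoint recorded as highest concentration tested. At the GI50, growth is halved.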 The source made the active and inactive calls. Rule as the data show it: active = GI50 up to about 1.1 µM and inactive = higher. Peptide text beside a SMILES is read from it. * marks the point of attachment. Boc = CC(C)(C)OC(=O)*

Legend:
Assay in all cases: growth of human tumour cells (NCI), 48 h
CCRF-CEM = system: CCRF-CEM
NCI-H23 = system: NCI-H23
RPMI-8226 = system: RPMI-8226
NCI-H460 = system: NCI-H460
M14 = system: M14
NCI/ADR-RES = system: NCI/ADR-RES
T47D = system: T47D
HOP-62 = system: HOP-62
SN12C = system: SN12C
SW-620 = system: SW-620
ACHN = system: ACHN
786-0 = system: 786-0
OVCAR-3 = system: OVCAR-3
SK-MEL-28 = system: SK-MEL-28
A549 = system: A549
NCI-H522 = system: NCI-H522
OVCAR-4 = system: OVCAR-4
UACC-62 = system: UACC-62
HCC 2998 = system: HCC 2998

| Compound | GI50 (CCRF-CEM) | GI50 (NCI-H23) | GI50 (RPMI-8226) | GI50 (NCI-H460) | GI50 (M14) | GI50 (NCI/ADR-RES) | GI50 (T47D) | GI50 (HOP-62) | GI50 (SN12C) | GI50 (SW-620) | GI50 (ACHN) | GI50 (786-0) | GI50 (OVCAR-3) | GI50 (SK-MEL-28) | GI50 (A549) | GI50 (NCI-H522) | GI50 (OVCAR-4) | GI50 (UACC-62) | GI50 (HCC 2998) |
| --- | --- | --- | --- | --- | --- | --- | --- | --- | --- | --- | --- | --- | --- | --- | --- | --- | --- | --- | --- |
| COc1cc(-c2c3c(cc4c2OCO4)[C@@H](Nc2ccc(-c4ccc(-c5ccc(N[C@@H]6c7cc8c(cc7C(c7cc(OC)c(O)c(OC)c7)[C@H]7C(=O)OC[C@H]67)OCO8)cc5)cc4)cc2)[C@H]2COC(=O)[C@@H]2C3)cc(OC)c1O (stereo not given in full) | 3.13 µM (inactive) | 5.13 µM (inactive) | 2.52 µM (inactive) | 3.05 µM (inactive) | 1.95 µM (inactive) | 1.85 µM (inactive) | 4.93 µM (inactive) | 2.58 µM (inactive) | 5.21 µM (inactive) | 2.7 µM (inactive) | 2.24 µM (inactive) | 1.76 µM (inactive) | 2.36 µM (inactive) | 1.85 µM (inactive) | 3.22 µM (inactive) | – | – | – | – |
| C=CCCC1CCCCC/C1=N\N(C)C (stereo not given) | > 100 µM (inactive) | > 100 µM (inactive) | > 100 µM (inactive) | > 100 µM (inactive) | > 100 µM (inactive) | > 100 µM (inactive) | > 100 µM (inactive) | > 100 µM (inactive) | > 100 µM (inactive) | > 100 µM (inactive) | > 100 µM (inactive) | > 100 µM (inactive) | > 100 µM (inactive) | > 100 µM (inactive) | > 100 µM (inactive) | > 100 µM (inactive) | > 100 µM (inactive) | > 100 µM (inactive) | – |
| CCOC(=O)/C(C#N)=N\Nc1ccc(-n2c(C)nc3ccccc3c2=O)cc1 | > 100 µM (inactive) | > 100 µM (inactive) | 30.9 µM (inactive) | 67.5 µM (inactive) | 69.8 µM (inactive) | 18.9 µM (inactive) | 34.8 µM (inactive) | > 100 µM (inactive) | > 100 µM (inactive) | 75.9 µM (inactive) | > 100 µM (inactive) | > 100 µM (inactive) | 32.7 µM (inactive) | 33.2 µM (inactive) | 73.6 µM (inactive) | – | – | 70.3 µM (inactive) | – |
| N#C/C(C(=O)CCl)=C1\Nc2ccccc2O1 | 3.29 µM (inactive) | 3.75 µM (inactive) | 2.92 µM (inactive) | 3.19 µM (inactive) | 3.9 µM (inactive) | 2.2 µM (inactive) | 15.6 µM (inactive) | 4.89 µM (inactive) | 2.9 µM (inactive) | 4.33 µM (inactive) | – | 3.76 µM (inactive) | 3.77 µM (inactive) | 1.63 µM (inactive) | 6.1 µM (inactive) | – | 1.49 µM (inactive) | 2.35 µM (inactive) | – |
| Clc1ccc(OCc2nnc3sc(-c4ccc(-c5ccc(Cl)cc5Cl)o4)nn23)cc1 | > 100 µM (inactive) | > 100 µM (inactive) | > 100 µM (inactive) | > 100 µM (inactive) | > 100 µM (inactive) | > 100 µM (inactive) | > 100 µM (inactive) | > 100 µM (inactive) | > 100 µM (inactive) | > 100 µM (inactive) | > 100 µM (inactive) | > 100 µM (inactive) | > 100 µM (inactive) | > 100 µM (inactive) | > 100 µM (inactive) | > 100 µM (inactive) | > 100 µM (inactive) | – | – |
| C1=N\CCOCC/N=C/c2ccccc2OCc2cccc(n2)COc2ccccc2/1 | 4.76 µM (inactive) | 12.5 µM (inactive) | 4.88 µM (inactive) | > 25 µM (inactive) | 8.87 µM (inactive) | 3.39 µM (inactive) | – | 16.5 µM (inactive) | 5.96 µM (inactive) | 4.79 µM (inactive) | 9.23 µM (inactive) | 10 µM (inactive) | 3.51 µM (inactive) | 8.13 µM (inactive) | > 25 µM (inactive) | 20.3 µM (inactive) | 6.03 µM (inactive) | 2.27 µM (inactive) | – |
| N#Cc1cc2c(cc1Cl)Sc1nccn1S2(=O)=O | 0.506 µM (active) | 1.51 µM (inactive) | 2.92 µM (inactive) | 9.53 µM (inactive) | 0.619 µM (active) | 1.68 µM (inactive) | 1.99 µM (inactive) | 3.38 µM (inactive) | 7.57 µM (inactive) | 3.54 µM (inactive) | 2.08 µM (inactive) | 14.8 µM (inactive) | 0.668 µM (active) | 2.32 µM (inactive) | 12.8 µM (inactive) | 1.15 µM (inactive) | 6.05 µM (inactive) | 2.55 µM (inactive) | – |
| CN(C)N1C(=O)CC2(CCN(CCCC(=O)c3ccc(F)cc3)CC2)C1=O | – | > 100 µM (inactive) | > 100 µM (inactive) | > 100 µM (inactive) | > 100 µM (inactive) | > 100 µM (inactive) | > 100 µM (inactive) | > 100 µM (inactive) | > 100 µM (inactive) | > 100 µM (inactive) | > 100 µM (inactive) | > 100 µM (inactive) | > 100 µM (inactive) | > 100 µM (inactive) | > 100 µM (inactive) | > 100 µM (inactive) | – | > 100 µM (inactive) | – |
| CCOCC(NC(=O)C(CC(C)C)NC(=O)OC(C)(C)C)C(N)=O (stereo not drawn) (Boc-Leu-Ser(Et)-NH2; configuration not given here) | 41 µM (inactive) | > 100 µM (inactive) | – | – | > 100 µM (inactive) | > 100 µM (inactive) | > 100 µM (inactive) | > 100 µM (inactive) | > 100 µM (inactive) | 1.59 µM (inactive) | > 100 µM (inactive) | > 100 µM (inactive) | > 100 µM (inactive) | 1.31 µM (inactive) | > 100 µM (inactive) | > 100 µM (inactive) | > 100 µM (inactive) | > 100 µM (inactive) | – |
| C[C@@]1(Br)C[C@@](C)(Cl)[C@@H](Br)CC1/C=C/Cl (stereo not given in full) | 11.1 µM (inactive) | 28.6 µM (inactive) | 16 µM (inactive) | 28.6 µM (inactive) | 16.6 µM (inactive) | 13.1 µM (inactive) | – | 17 µM (inactive) | 15 µM (inactive) | 26.9 µM (inactive) | 18.1 µM (inactive) | 16.6 µM (inactive) | 15.1 µM (inactive) | 21.9 µM (inactive) | 17.7 µM (inactive) | – | 24.8 µM (inactive) | > 10 µM (inactive) | 31.6 µM (inactive) |
| [N-]=[N+]=C(C(=O)CN1CCCC1=O)S(=O)(=O)c1ccccc1 | > 100 µM (inactive) | > 100 µM (inactive) | > 100 µM (inactive) | > 100 µM (inactive) | > 100 µM (inactive) | > 100 µM (inactive) | – | > 100 µM (inactive) | > 100 µM (inactive) | > 100 µM (inactive) | > 100 µM (inactive) | > 100 µM (inactive) | > 100 µM (inactive) | > 100 µM (inactive) | > 100 µM (inactive) | > 100 µM (inactive) | – | > 100 µM (inactive) | > 100 µM (inactive) |
| Cc1[nH]c(-c2ccccc2)c(O)c1C(=O)OC12CC3CC(CC(C3)C1)C2 | 39 µM (inactive) | 16.3 µM (inactive) | 37 µM (inactive) | 7.82 µM (inactive) | 12.4 µM (inactive) | 13.7 µM (inactive) | 15.8 µM (inactive) | 14.7 µM (inactive) | 16.4 µM (inactive) | 16.2 µM (inactive) | 16.1 µM (inactive) | 14 µM (inactive) | 14.6 µM (inactive) | 14.7 µM (inactive) | 12.1 µM (inactive) | 10.1 µM (inactive) | 16.3 µM (inactive) | 17.3 µM (inactive) | – |
| S=C1Cc2c([nH]c3ccccc23)-c2ccccc2N1 | > 100 µM (inactive) | 79.1 µM (inactive) | > 100 µM (inactive) | 35.4 µM (inactive) | > 100 µM (inactive) | 50 µM (inactive) | > 100 µM (inactive) | 25.9 µM (inactive) | 38.6 µM (inactive) | > 100 µM (inactive) | 23.6 µM (inactive) | 31.3 µM (inactive) | 32.6 µM (inactive) | > 100 µM (inactive) | 23 µM (inactive) | – | > 100 µM (inactive) | 72.3 µM (inactive) | – |
| Cc1cccc(N2C(=O)C3ON(C(C(N)=O)c4ccccc4)C(c4c5ccccc5c(Cl)c5ccccc45)C3C2=O)c1C (stereo not given) | 2.55 µM (inactive) | 11.6 µM (inactive) | – | 9.71 µM (inactive) | 7.93 µM (inactive) | 10.9 µM (inactive) | 9.57 µM (inactive) | 10.6 µM (inactive) | 8.07 µM (inactive) | 3.53 µM (inactive) | 9.16 µM (inactive) | 9.62 µM (inactive) | 8.43 µM (inactive) | 13 µM (inactive) | 14.3 µM (inactive) | 10.5 µM (inactive) | 9.57 µM (inactive) | 6.84 µM (inactive) | – |
| Cc1nc(Cl)nc(Cl)c1C | > 100 µM (inactive) | > 100 µM (inactive) | > 100 µM (inactive) | > 100 µM (inactive) | > 100 µM (inactive) | > 100 µM (inactive) | – | > 100 µM (inactive) | > 100 µM (inactive) | > 100 µM (inactive) | > 100 µM (inactive) | > 100 µM (inactive) | > 100 µM (inactive) | > 100 µM (inactive) | > 100 µM (inactive) | > 100 µM (inactive) | > 100 µM (inactive) | – | > 100 µM (inactive) |
| O=C1CC(n2cccc2)c2cc(Br)sc21 (stereo not given) | 18.7 µM (inactive) | 39.1 µM (inactive) | 26.4 µM (inactive) | > 100 µM (inactive) | > 100 µM (inactive) | > 100 µM (inactive) | 48.3 µM (inactive) | > 100 µM (inactive) | 43.9 µM (inactive) | 35 µM (inactive) | > 100 µM (inactive) | 42 µM (inactive) | > 100 µM (inactive) | > 100 µM (inactive) | > 100 µM (inactive) | 21.6 µM (inactive) | > 100 µM (inactive) | > 100 µM (inactive) | – |
